{
  "source": "patent EP4813991A1",
  "about": "(iLeadBMS Co., Ltd., priority 2023, dated 2025)",
  "key": {"CDK1": {"target": "CDK1 (Homo sapiens, UniProt P06493)", "sequence (P06493 whole entry, species assumed)": "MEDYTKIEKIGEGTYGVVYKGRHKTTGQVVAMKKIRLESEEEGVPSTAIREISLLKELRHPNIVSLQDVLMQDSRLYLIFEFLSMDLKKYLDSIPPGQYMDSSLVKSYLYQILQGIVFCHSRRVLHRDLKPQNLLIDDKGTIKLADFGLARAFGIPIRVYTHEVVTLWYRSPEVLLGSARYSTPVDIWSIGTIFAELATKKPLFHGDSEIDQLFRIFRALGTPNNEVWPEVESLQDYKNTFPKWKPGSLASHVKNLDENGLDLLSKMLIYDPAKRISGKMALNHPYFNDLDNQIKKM", "sequence (P14635 whole entry partner, species assumed)": "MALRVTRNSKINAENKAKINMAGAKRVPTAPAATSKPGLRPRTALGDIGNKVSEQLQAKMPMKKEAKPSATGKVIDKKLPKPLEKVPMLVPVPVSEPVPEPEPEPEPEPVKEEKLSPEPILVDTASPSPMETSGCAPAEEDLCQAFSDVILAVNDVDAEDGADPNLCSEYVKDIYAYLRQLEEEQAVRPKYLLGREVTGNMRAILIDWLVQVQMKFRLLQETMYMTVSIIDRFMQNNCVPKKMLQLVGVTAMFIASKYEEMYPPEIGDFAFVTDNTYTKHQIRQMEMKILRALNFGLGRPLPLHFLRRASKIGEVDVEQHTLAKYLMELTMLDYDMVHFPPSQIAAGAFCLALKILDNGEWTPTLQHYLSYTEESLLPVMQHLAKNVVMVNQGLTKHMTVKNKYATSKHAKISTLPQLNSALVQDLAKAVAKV", "test": "CDK1 kinase inhibitory activity assay and selectivity over CDK12", "format": "biochemical", "conditions": "for IC50: kinase reaction 120 minutes, 33P-gamma-ATP", "in_short": "(§1)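 Radiometric ^33P-gamma-ATP filter-binding assay: compound (9 concentrations, DMSO) preincubated 20 min with CDK1 or CDK2 plus substrate, then kinase reaction 120 min at room temperature. Phosphorylated substrate counted after phosphoric acid washes; activity relative to DMSO control, IC50 calculated.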"}, "AGS cells": {"system": "AGS cells", "test": "Gastric cancer cell proliferation inhibitory activity (CellTiter Glo), AGS", "format": "cell-based", "conditions": "Homo sapiens, AGS, 72 hours, relative IC50", "method": "Experiments were performed using four types of gastric cancer cell lines (AGS, SNU-1, KATO-III, and MKN45) to measure the cell proliferation inhibitory ability of each Example compound. For AGS cells, 90 µL of cell suspension was dispensed into a 96-well plate using F-12K (Gibco) medium containing 10 % FBS, followed by incubation in a cell incubator at 37 °C and 5 % CO2. For SNU-1 and MKN45 cells, 90 µL of cell suspension was dispensed into a 96-well plate using RPMI1640 (Gibco) medium containing 10 % FBS, followed by incubation in a cell incubator at 37 °C and 5 % CO2. For KATO-III cells, 90 uL of cell suspension was dispensed into a 96-well plate using IMDM (Gibco) medium containing 10 % FBS, followed by incubation in a cell incubator at 37 °C and 5 % CO2. The next day, each Example compound dissolved and diluted in DMSO across 9 concentration ranges and a DMSO control group were added at 10 µL to each 96-well plate and treated for 72 hours. After completion of the compound treatment, 100 µL of CellTiter Glo (Promega) reagent was added to each well of the 96-well plate, followed by shaking for 10 minutes and standing at room temperature for 10 minutes. Luminescence signals were measured after inserting the 96-well plate into an Envision plate reader (PerkinElmer). Relative IC50 values were calculated by fitting a dose-response curve using XLfit (IDBS Ltd) software.\nThe gastric cancer cell proliferation inhibitory activities of the Example compounds measured by the method described above were evaluated according to the following criteria, and the results are presented in Table 16."}, "CDK13": {"target": "CDK13 (Homo sapiens, UniProt Q14004)", "sequence (Q14004 whole entry, species assumed)": "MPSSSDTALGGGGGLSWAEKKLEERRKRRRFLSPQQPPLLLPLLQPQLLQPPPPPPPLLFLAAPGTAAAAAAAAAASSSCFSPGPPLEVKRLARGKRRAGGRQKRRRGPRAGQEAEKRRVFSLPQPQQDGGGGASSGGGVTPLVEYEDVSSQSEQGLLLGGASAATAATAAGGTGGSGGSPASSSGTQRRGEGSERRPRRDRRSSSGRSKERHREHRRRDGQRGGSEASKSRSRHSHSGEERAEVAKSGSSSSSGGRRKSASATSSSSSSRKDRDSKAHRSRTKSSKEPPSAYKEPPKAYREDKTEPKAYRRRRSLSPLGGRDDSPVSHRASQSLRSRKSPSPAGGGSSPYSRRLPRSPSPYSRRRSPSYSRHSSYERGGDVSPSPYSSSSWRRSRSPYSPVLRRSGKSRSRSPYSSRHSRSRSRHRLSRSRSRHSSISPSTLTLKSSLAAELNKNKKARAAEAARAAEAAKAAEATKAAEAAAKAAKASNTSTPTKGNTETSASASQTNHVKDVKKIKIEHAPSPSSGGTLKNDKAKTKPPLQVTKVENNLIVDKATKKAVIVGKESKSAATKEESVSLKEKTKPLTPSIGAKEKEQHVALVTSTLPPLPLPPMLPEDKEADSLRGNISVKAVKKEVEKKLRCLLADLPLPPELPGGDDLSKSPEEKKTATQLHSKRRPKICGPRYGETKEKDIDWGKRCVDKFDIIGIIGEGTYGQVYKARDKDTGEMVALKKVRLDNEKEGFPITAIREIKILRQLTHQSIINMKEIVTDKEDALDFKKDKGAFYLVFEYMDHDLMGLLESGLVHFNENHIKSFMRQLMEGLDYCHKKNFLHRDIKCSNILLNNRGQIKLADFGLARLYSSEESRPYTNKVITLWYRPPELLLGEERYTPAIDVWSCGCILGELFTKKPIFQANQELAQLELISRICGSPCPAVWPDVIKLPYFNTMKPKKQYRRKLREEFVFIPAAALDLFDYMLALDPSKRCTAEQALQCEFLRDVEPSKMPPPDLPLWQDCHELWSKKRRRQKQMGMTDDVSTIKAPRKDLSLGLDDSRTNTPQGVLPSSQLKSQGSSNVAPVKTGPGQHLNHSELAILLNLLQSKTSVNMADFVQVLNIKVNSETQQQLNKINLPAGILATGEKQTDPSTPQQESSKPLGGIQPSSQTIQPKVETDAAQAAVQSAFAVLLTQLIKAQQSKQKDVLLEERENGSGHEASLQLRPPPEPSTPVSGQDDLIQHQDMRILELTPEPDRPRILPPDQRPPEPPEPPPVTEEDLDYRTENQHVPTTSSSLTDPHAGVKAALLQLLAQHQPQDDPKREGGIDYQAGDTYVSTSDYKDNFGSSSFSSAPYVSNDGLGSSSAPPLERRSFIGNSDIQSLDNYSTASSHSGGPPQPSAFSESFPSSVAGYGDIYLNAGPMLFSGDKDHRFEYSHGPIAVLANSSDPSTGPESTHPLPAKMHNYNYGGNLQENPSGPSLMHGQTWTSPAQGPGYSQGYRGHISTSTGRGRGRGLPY", "sequence (O75909 whole entry partner, species assumed)": "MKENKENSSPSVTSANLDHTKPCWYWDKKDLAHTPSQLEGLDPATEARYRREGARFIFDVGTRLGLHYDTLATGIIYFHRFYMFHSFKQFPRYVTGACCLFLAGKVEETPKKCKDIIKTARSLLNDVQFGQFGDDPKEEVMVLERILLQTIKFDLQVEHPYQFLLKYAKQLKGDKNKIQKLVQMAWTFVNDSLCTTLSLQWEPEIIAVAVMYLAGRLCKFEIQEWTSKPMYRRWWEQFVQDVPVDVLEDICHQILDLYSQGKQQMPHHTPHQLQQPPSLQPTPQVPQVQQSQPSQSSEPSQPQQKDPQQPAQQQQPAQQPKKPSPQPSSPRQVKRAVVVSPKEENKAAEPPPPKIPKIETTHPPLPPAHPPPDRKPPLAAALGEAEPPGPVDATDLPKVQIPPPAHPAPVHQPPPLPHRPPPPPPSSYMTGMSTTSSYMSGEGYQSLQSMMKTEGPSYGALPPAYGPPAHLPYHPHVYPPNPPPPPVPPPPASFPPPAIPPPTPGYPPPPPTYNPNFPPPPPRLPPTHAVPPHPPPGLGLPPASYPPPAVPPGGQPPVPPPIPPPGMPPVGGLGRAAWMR", "test": "CDK13 kinase inhibitory activity assay (33P-ATP filter binding)", "format": "biochemical", "in_short": "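Compound in 9 concentrations pre-incubated 20 min with kinase and substrate, then ^33P-γ-ATP added and reacted 120 min at room temperature. Phosphorylated substrate captured on filter, washed with 0.75 % phosphoric acid and counted; activity as % of DMSO control, IC50 fitted.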"}, "CDK2": {"target": "CDK2 (Homo sapiens, UniProt P24941)", "test": "CDK2 kinase inhibitory activity assay and selectivity over CDK12", "format": "biochemical", "conditions": "for IC50: kinase reaction 120 minutes, 33P-gamma-ATP; for CDK2/CDK12: ratio of CDK2 IC50 to CDK12 IC50", "in_short": "as §1"}, "BT-20 cells": {"system": "BT-20 cells", "test": "Breast cancer cell proliferation inhibitory activity, BT-20", "format": "cell-based", "conditions": "Homo sapiens, 72 hours, CellTiter Glo, relative IC50", "method": "Experiments were conducted using three types of breast cancer cell lines to measure the cell proliferation inhibitory ability of each Example compound. For HCC70 cells, 100 µL of cell suspension was dispensed into a 96-well plate using RPMI1640 (Invitrogen) medium containing 10 % FBS, followed by incubation in a cell incubator at 37 °C and 5 % CO2. For BT-20 cells, 100 µL of cell suspension was dispensed into a 96-well plate using EMEM (Invitrogen) medium containing 10 % FBS, followed by incubation in a cell incubator at 37 °C and 5 % CO2. For MDA-MB-436 cells, 100 µL of cell suspension was dispensed into a 96-well plate using L-15 (Invitrogen) medium containing 10 % FBS, followed by incubation in a cell incubator at 37 °C and 0 % CO2. The next day, each Example compound dissolved and diluted in DMSO across 9 concentration ranges and a DMSO control group were treated on the cells for 72 hours. After completion of the compound treatment, 100 µL of CellTiter Glo (Promega) reagent was added to each well of the 96-wellplate, followed by shaking for 10 minutes and standing at room temperature for 10 minutes. After inserting the 96-well plate into an Envision plate reader (PerkinElmer), luminescence signals were measured. Relative IC50 values were calculated by fitting a dose-response curve using XL fit (IDBS Ltd) software.\nThe breast cancer cell proliferation inhibitory activities of the Example compounds measured by the method described above were evaluated according to the following criteria, and the results are presented in Table 15."}, "[1]": {"conditions": "kinase reaction 120 minutes, 33P-gamma-ATP, read-out: CDK13 IC50"}},
  "note": "Like-named read-outs stand apart in the source and are kept apart here.",
  "data": [
    {"smiles": "CN1CCN(c2cc(NCc3nc4ccc(F)c(F)c4[nH]3)c3ncc(C(F)(F)F)n3n2)CC1", "note": "[Example 8, N-((6,7-difluoro-1H-benzo[d]imidazol-2-yl)methyl)-6-(4-methylpiperazin-1-yl)-3-(trifluoromethyl)imidazo[1,2-b]pyridazin-8-amine]", "values": [
      {"measurement": "IC50", "setting": "CDK1", "value": "> 1000", "unit": "nM"},
      {"measurement": "CDK1/CDK12", "setting": "CDK1; ratio of CDK1 IC50 to CDK12 IC50", "value": "A (CDK1/CDK12 or CDK2/CDK12 > 500-fold)"},
      {"measurement": "IC50", "setting": "AGS cells", "value": "≤ 200", "unit": "nM"},
      {"measurement": "IC50", "setting": "CDK13", "value": "< 100", "unit": "nM"},
      {"measurement": "IC50", "setting": "CDK2", "value": "> 1000", "unit": "nM"},
      {"measurement": "CDK2/CDK12", "setting": "CDK2", "value": "B (100-fold < CDK1/CDK12 or CDK2/CDK12 ≤ 500-fold)"},
      {"measurement": "IC50", "setting": "BT-20 cells", "value": "≤ 50", "unit": "nM"}
    ]},
    {"smiles": "CN1CCN(c2cc(NCc3nc4cc(Cl)c(Cl)cc4[nH]3)c3ncc(C(F)(F)F)n3n2)CC1", "note": "[Example 29, N-((5,6-dichloro-1H-benzo[d]imidazol-2-yl)methyl)-6-(4-methylpiperazin-1-yl)-3-(trifluoromethyl)imidazo[1,2-b]pyridazin-8-amine]", "values": [
      {"measurement": "IC50", "setting": "CDK1", "value": "> 1000", "unit": "nM"},
      {"measurement": "IC50", "setting": "AGS cells", "value": "≤ 200", "unit": "nM"},
      {"measurement": "IC50", "setting": "CDK13; [1]", "value": "< 100", "unit": "nM"},
      {"measurement": "IC50", "setting": "CDK2", "value": "> 1000", "unit": "nM"},
      {"measurement": "IC50", "setting": "BT-20 cells", "value": "≤ 50", "unit": "nM"}
    ]},
    {"smiles": "Nc1ncc(-c2cc(NCc3nc4cc(Cl)c(Cl)cc4[nH]3)c3ncc(C(F)(F)F)n3n2)cn1", "note": "[Example 40]", "values": [
      {"measurement": "IC50", "setting": "CDK1", "value": "> 1000", "unit": "nM"},
      {"measurement": "IC50", "setting": "CDK13; [1]", "value": "< 100", "unit": "nM"},
      {"measurement": "IC50", "setting": "CDK2", "value": "> 1000", "unit": "nM"}
    ]},
    {"smiles": "N#CC1CN(c2cc(NCc3nc4cc(Cl)c(Cl)cc4[nH]3)c3ncc(C(F)(F)F)n3n2)C1", "note": "[Example 30, 1-(8-(((5,6-dichloro-1H-benzol[d]imidazol-2-yl)methyl)amino)-3-(trifluoromethyl)imidazo[1,2-b]pyridazin-6-yl)azetidine-3-carbonitrile]", "values": [
      {"measurement": "IC50", "setting": "CDK1", "value": "> 1000", "unit": "nM"},
      {"measurement": "IC50", "setting": "AGS cells", "value": "≤ 200", "unit": "nM"},
      {"measurement": "IC50", "setting": "CDK13; [1]", "value": "< 100", "unit": "nM"},
      {"measurement": "IC50", "setting": "CDK2", "value": "> 1000", "unit": "nM"},
      {"measurement": "CDK2/CDK12", "setting": "CDK2", "value": "C (CDK1/CDK12 or CDK2/CDK12 ≤ 100-fold)"},
      {"measurement": "IC50", "setting": "BT-20 cells", "value": "≤ 50", "unit": "nM"}
    ]}
  ]
}
